Reference: patent US12655116B2, “Substituted isophthalic acid diamides” (Bayer Aktiengesellschaft, priority 2020, dated 2026)

What was measured:
ABUTH [1] = assay: Pre-emergence herbicidal action against ABUTH; format: in vivo, Abutilon theophrasti
Method in brief: (§1)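 Herbicidal effect was assessed 3 weeks after treatment by visual comparison with untreated controls, 100% denoting dead plants. Aqueous WP or EC preparations had been applied at 600 to 800 l/ha with 0.2% wetting agent to the soil covering freshly sown seeds.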

ALOMY [2] = assay: Pre-emergence herbicidal action against ALOMY; format: in vivo, Alopecurus myosuroides; conditions: 80 g/ha, pre-emergence, scored visually after 3 weeks vs untreated controls (100% = plants have died, 0% = like control plants)
Method in brief: as §1

AMARE [3] = assay: Pre-emergence herbicidal action against AMARE; format: in vivo, Amaranthus retroflexus
Method in brief: as §1

AVEFA [4] = assay: Pre-emergence herbicidal action against AVEFA; format: in vivo, Avena fatua; conditions: 80 g/ha, pre-emergence
Method in brief: as §1

ECHCG [5] = assay: Pre-emergence herbicidal action against ECHCG; format: in vivo, Echinochloa crus-galli; conditions: 80 g/ha
Method in brief: as §1

HORMU = assay: Pre-emergence herbicidal action against HORMU; format: in vivo, Hordeum murinum; conditions: 80 g/ha, pre-emergence
From the text: Seeds of monocotyledonous and dicotyledonous weed plants and crop plants are laid out in sandy loam soil in wood-fiber pots and covered with soil. The compounds of the invention, formulated in the form of wettable powders (WP) or as emulsion concentrates (EC), are then applied to the surface of the covering soil in the form of an aqueous suspension or emulsion at a water application rate equivalent to 600 to 800 l/ha, with addition of 0.2% wetting agent. After the treatment, the pots are placed in a greenhouse and kept under good growth conditions for the trial plants. The damage to the test plants is scored visually after a test period of 3 weeks by comparison with untreated controls (herbicidal activity in percent (%): 100% activity=the plants have died, 0% activity=like control plants). […] The tables below illustrate, in an illustrative manner, the post-emergence herbicidal action of the compounds of the invention, the herbicidal activity being stated in percent.

MATIN [6] = assay: Pre-emergence herbicidal action against MATIN; format: in vivo, Matricaria inodora; conditions: dosage 80 g/ha
Method in brief: as §1

PHBPU = assay: Pre-emergence herbicidal action against PHBPU; format: in vivo, Pharbitis purpurea; conditions: dosage 80 g/ha
Method in brief: as §1

STEME [7] = assay: Pre-emergence herbicidal action against STEME; format: in vivo, Stellaria media; conditions: dosage 80 g/ha
Method in brief: as §1

VERPE [8] = assay: Pre-emergence herbicidal action against VERPE; format: in vivo, Veronica persica
Method in brief: as §1

VIOTR [9] = assay: Pre-emergence herbicidal action against VIOTR; format: in vivo, Viola tricolor
Method in brief: as §1

DIGSA [10] = assay: Pre-emergence herbicidal action against DIGSA; format: in vivo, Digitaria sanguinalis
Method in brief: as §1

ABUTH [11] = assay: Post-emergence herbicidal action against ABUTH; format: in vivo, Abutilon theophrasti; conditions: visual assessment about 3 weeks after treatment vs untreated controls
Method in brief: (§2)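 Herbicidal effect was scored visually in percent after about 3 weeks in the greenhouse. Plants had been raised in sandy loam and treated post-emergence at the one-leaf stage with formulated compound at 600 to 800 l/ha water plus 0.2% wetting agent.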

AMARE [12] = assay: Post-emergence herbicidal action against AMARE; format: in vivo, Amaranthus retroflexus; conditions: 20 g/ha, visual assessment about 3 weeks after treatment, 100% = plants have died, 0% = like control plants
Method in brief: as §2

AVEFA [13] = assay: Post-emergence herbicidal action against AVEFA; format: in vivo, Avena fatua; conditions: 20 g/ha, visual assessment about 3 weeks after treatment, 100% = plants have died, 0% = like control plants
Method in brief: as §2

MATIN [14] = assay: Post-emergence herbicidal action against MATIN; format: in vivo, Matricaria inodora; conditions: dosage 20 g/ha
Method in brief: as §2

STEME [15] = assay: Post-emergence herbicidal action against STEME; format: in vivo, Stellaria media
Method in brief: as §2

VERPE [16] = assay: Post-emergence herbicidal action against VERPE; format: in vivo, Veronica persica; conditions: 20 g/ha
Method in brief: as §2

VIOTR [17] = assay: Post-emergence herbicidal action against VIOTR; format: in vivo, Viola tricolor; conditions: 20 g/ha
Method in brief: as §2

SETVI [18] = assay: Pre-emergence herbicidal action against SETVI; format: in vivo, Setaria viridis; conditions: Setaria viridis, 504 h, dosage 80 g/ha
Method in brief: as §1

ALOMY [19] = assay: Post-emergence herbicidal action against ALOMY; format: in vivo, Alopecurus myosuroides; conditions: Alopecurus myosuroides, 504 h, dosage 20 g/ha, visual assessment about 3 weeks after treatment vs untreated controls
Method in brief: as §2

ECHCG [20] = assay: Post-emergence herbicidal action against ECHCG; format: in vivo, Echinochloa crus-galli; conditions: Echinochloa crus-galli, 504 h, dosage 20 g/ha
Method in brief: as §2

SETVI [21] = assay: Post-emergence herbicidal action against SETVI; format: in vivo, Setaria viridis; conditions: Setaria viridis, 504 h, dosage 20 g/ha
Method in brief: as §2

DIGSA [22] = assay: Post-emergence herbicidal action against DIGSA; format: in vivo, Digitaria sanguinalis; conditions: Digitaria sanguinalis, 504 h
Method in brief: as §2

[23] = 80 g/ha, scored visually after 3 weeks vs untreated controls (100% = plants have died, 0% = like control plants)

For CCCn1nnnc1NC(=O)c1ccc(C(F)(F)F)c(C(=O)NC(C)=O)c1Cl [Example 3-337], the “Pre-emergence action against ABUTH (herbicidal activity)” value (ABUTH [1]; [23]) was 100%, the “Pre-emergence action against ABUTH (herbicidal activity in percent)” value (ABUTH [1]; dosage 20 g/ha, scored visually after 3 weeks vs untreated controls, 100% = plants have died, 0% = like control plants) was 100% and the “Pre-emergence action against ALOMY (herbicidal activity)” value (ALOMY [2]) was 100%. The “Pre-emergence action against AMARE in %” value (AMARE [3]; 20 g/ha, scored visually after 3 weeks vs untreated controls, 100% = plants have died, 0% = like control plants) was 100%, the “Pre-emergence action against AMARE in %” value (AMARE [3]; [23]) was 100% and the “Pre-emergence action against AVEFA in %” value (AVEFA [4]) was 100%. For the same compound, the “Pre-emergence action against ECHCG in %” value (ECHCG [5]) was 90%, the “Pre-emergence action against HORMU in %” value (HORMU) was 100% and the “Pre-emergence action against MATIN in %” value (MATIN [6]) was 100%. For the same compound, the “Pre-emergence action against PHBPU in %” value (PHBPU) was 90%, the “Pre-emergence action against STEME in %” value (STEME [7]) was 100% and the “Pre-emergence action against VERPE in %” value (VERPE [8]; dosage 80 g/ha) was 100%. For the same compound, the “Pre-emergence action against VIOTR in %” value (VIOTR [9]; dosage 20 g/ha) was 100%, the “Pre-emergence action against VIOTR in %” value (VIOTR [9]; dosage 80 g/ha) was 100% and the “Pre-emergence action against DIGSA in %” value (DIGSA [10]; dosage 20 g/ha) was 90%. For the same compound, the “Pre-emergence action against DIGSA in %” value (DIGSA [10]; dosage 80 g/ha) was 100%, the “Post-emergence action against ABUTH in %” value (ABUTH [11]; dosage 5 g/ha) was 80% and the “Post-emergence action against ABUTH in %” value (ABUTH [11]; dosage 20 g/ha) was 80%. The “Post-emergence action at 20 g/ha against AMARE in %” value (AMARE [12]) was 100%, the “Post-emergence action at 20 g/ha against AVEFA in %” value (AVEFA [13]) was 80% and the “Post-emergence action against MATIN in %” value (MATIN [14]) was 80%. For the same compound, the “Post-emergence action against STEME in %” value (STEME [15]; 20 g/ha) was 100%, the “Post-emergence action against VERPE in %” value (VERPE [16]) was 90% and the “Post-emergence action against VIOTR in %” value (VIOTR [17]) was 100%.

CNC(=O)c1c(Cl)ccc(C(=O)Nc2nnnn2C)c1C [Example 1-4] was tested, and the pest or weed control at 80 g/ha (ABUTH [1]; Abutilon theophrasti, 504 h, 80 g/ha, scored visually after 3 weeks vs untreated controls (100% = plants have died, 0% = like control plants)) was 100%, the pest or weed control at 80 g/ha (ALOMY [2]; Alopecurus myosuroides, 504 h) was 80% and the pest or weed control at 20 g/ha (AMARE [3]; Amaranthus retroflexus, 504 h, 20 g/ha, scored visually after 3 weeks vs untreated controls, 100% = plants have died, 0% = like control plants) was 90%. The pest or weed control at 80 g/ha (AMARE [3]; Amaranthus retroflexus, 504 h, 80 g/ha, scored visually after 3 weeks vs untreated controls, 100% = plants have died, 0% = like control plants) was 100%, the pest or weed control at 80 g/ha (AVEFA [4]; Avena fatua, 504 h) was 90% and the pest or weed control at 80 g/ha (ECHCG [5]; Echinochloa crus-galli, 504 h) was 90%. It also gave a pest or weed control at 80 g/ha (HORMU; Hordeum murinum, 504 h) of 80%, a pest or weed control at 80 g/ha (MATIN [6]; Tripleurospermum inodorum, 504 h) of 100% and a pest or weed control at 80 g/ha (SETVI [18]) of 100%. It also gave a pest or weed control at 80 g/ha (STEME [7]; Stellaria media, 504 h) of 90%, a pest or weed control at 20 g/ha (VERPE [8]; Veronica persica, 504 h, dosage 20 g/ha) of 80% and a pest or weed control at 80 g/ha (VERPE [8]; Veronica persica, 504 h, dosage 80 g/ha) of 90%. For the same compound, the pest or weed control at 80 g/ha (DIGSA [10]; Digitaria sanguinalis, 504 h, dosage 80 g/ha) was 100%, the pest or weed control at 5 g/ha (ABUTH [11]; Abutilon theophrasti, 504 h, dosage 5 g/ha) was 90% and the pest or weed control at 20 g/ha (ABUTH [11]; Abutilon theophrasti, 504 h, dosage 20 g/ha) was 90%. The pest or weed control at 20 g/ha (ALOMY [19]) was 80%, the pest or weed control at 20 g/ha (AMARE [12]; Amaranthus retroflexus, 504 h) was 90% and the pest or weed control at 20 g/ha (AVEFA [13]; Avena fatua, 504 h) was 80%. It also gave a pest or weed control at 20 g/ha (ECHCG [20]) of 100%, a pest or weed control at 20 g/ha (SETVI [21]) of 80% and a pest or weed control at 20 g/ha (STEME [15]; Stellaria media, 504 h, 20 g/ha) of 90%. It also gave a pest or weed control at 5 g/ha (STEME [15]; Stellaria media, 504 h, dosage 5 g/ha) of 80%, a pest or weed control at 5 g/ha (DIGSA [22]; 5 g/ha) of 80% and a pest or weed control at 20 g/ha (DIGSA [22]; 20 g/ha) of 90%.
